{"source": "patent US20200393377A1", "about": "“Microscopy for Rapid Antibiotic Susceptibility Test Using Membrane Fluorescence Staining and Spectral Intensity Ratio” (POCARED Diagnostics LTD., priority 2019, published 2020)", "key": {"E. coli [1]": {"tested_on": "E. coli", "assay": "Rapid AST/MIC by membrane fluorescence staining, SIR from IN Cell confocal imaging", "assay_type": "cell-based", "conditions": "InCell measurement; SIR (610 nm/530 nm) vs antibiotic concentration, step function fit; 2-4 hours antibiotic exposure at 37° C.; Synaptogreen/FM 1-43 dye", "method": "In general, the method includes blood culture centrifugation, bacterial antimicrobial exposure for 2 to 4 hours, bacteria staining with a single fluorescence dye followed by laser confocal microscopy, and mathematical analysis.\nSample Preparation—Macro Dilution Method • a) Antimicrobial (Gentamicin) stock solutions were prepared according to CLSI recommendations, and were diluted in CAMHB, to a concentration which was 2 fold higher from the highest concentration recommended for each antimicrobial combination (“Class II Special Controls Guidance Document: Antimicrobial Susceptibility Test (AST) Systems”, Aug. […] The images were taken through a green filter (530 nm) and red filter (615 nm) one after the other for each image. • i) images were analyzed using GE In Cell Investigator image analysis software. For each image the following operation were performed; segmentation for identifying the bacteria, for each bacteria the intensity in the green and […] were recorded, and a scatter plot of the bacteria population was plotted (x axis—intensity in the green, y axis—intensity in the red).\nTo quantify the influence of a certain antimicrobial exposure we define the spectral intensity ratio (SIR) as follows: […]\nThe MIC is calculated by plotting the spectral intensity ratio (SIR) as a function of the antimicrobial concentration and approximating it to a step function in the form of […]"}, "E. coli [2]": {"tested_on": "E. coli", "assay": "MIC by SIR from flow cytometer measurement", "assay_type": "cell-based", "conditions": "SIR vs antibiotic concentration", "method": "The MIC is calculated by plotting the spectral intensity ratio (SIR) as a function of the antimicrobial concentration and approximating it to a step function in the form of\nWhere a, b, and c are parameters and erf is the error function. The parameters are used to approximate the measured SIR to a step function; a is a scaling parameter, b determines the step slope, and c is the MIC value, or a function of it. The SIR values are used to determine the erf parameters by a best fit approximation.\nWe measured E. coli exposed to gentamicin at 4 concentration. The MIC was calculated using the spectral intensity ratio (SIR) calculation and step function estimation using MATLAB software.\nFIG. 3 provides plots showing the SIR as a function of the antibiotic concentration for the InCell measurement (top) and flow cytometer measurement (bottom). As can been seen from the graphs, their shapes are similar, although the InCell measurement has less data points, and the MIC is 0.5 μg/ml in both cases. Live bacteria population (0 μg/ml) have lower SIR then the dead ones (>0.5 μg/ml). At the MIC (0.5 ug/ml) there is a large increase in the SIR. […] The SIR then decreases at very high (>4 ug/ml) antibiotic concentrations."}}, "data": [{"substance": "gentamicin", "values": [{"measurement": "MIC", "setting": "E. coli [1]", "value": 0.5, "unit": "µg/mL"}, {"measurement": "MIC", "setting": "E. coli [2]", "value": 0.5, "unit": "µg/mL"}]}]}
